Assay results: US6461833B1, “Method to detect bacteria” (priority 1995, dated 2002)
Like-named read-outs stand apart in the source and are kept apart here.

Assays:
Mycobacterium smegmatis = format: cell-based; conditions: for number of plaques observed: 72 hours incubation with drug, M. smegmatis
BCG = format: cell-based, M. tuberculosis; conditions: for number of plaques observed: 72 hours incubation with drug, M. tuberculosis
[1] = Isoniazid concentration 0.1 μg/ml
[2] = Isoniazid concentration 1.0 μg/ml
[3] = Isoniazid concentration 10 μg/ml
[4] = Rifampicin concentration 10 μg/ml
[5] = Rifampicin concentration 50 μg/ml
[6] = Rifampicin concentration 100 μg/ml

Compound	number of plaques observed (Mycobacterium smegmatis; [1])	number of plaques observed (Mycobacterium smegmatis; [2])	number of plaques observed (Mycobacterium smegmatis; [3])	effect on cells judged from numbers of plaques (Mycobacterium smegmatis; isoniazid, all concentrations, only a slight reduction at the highest concentration)	number of plaques observed (BCG; [1])	number of plaques observed (BCG; [2])	number of plaques observed (BCG; [3])	change in numbers of plaques (BCG; higher concentrations of isoniazid)	effect on cells judged from number of plaques versus no drug controls (BCG; lowest concentration of isoniazid)	number of plaques observed (Mycobacterium smegmatis; [4])	number of plaques observed (Mycobacterium smegmatis; [5])	number of plaques observed (Mycobacterium smegmatis; [6])	number of plaques observed (BCG; [4])	number of plaques observed (BCG; [5])	number of plaques observed (BCG; [6])
NNC(=O)c1ccncc1 [Isoniazid, isoniazid]	++	++	+	mostly unaffected	122	40	2	marked reduction in the numbers of plaques	unaffected						
CO[C@H]1/C=C/O[C@@]2(C)Oc3c(C)c(O)c4c(O)c(c(/C=N/N5CCN(C)CC5)c(O)c4c3C2=O)NC(=O)/C(C)=C\C=C\[C@H](C)[C@H](O)[C@@H](C)[C@@H](O)[C@@H](C)[C@H](OC(C)=O)[C@@H]1C [Rifampicin, rifampicin]										++	50	8	4	4	10
